Assay [1] has as its system MV4‐11 cells. Nature of the assay: Cell viability endpoint assay (Celltiter Blue, 72 h). The format is cell-based. The settings on record: for IC50: Homo sapiens, MV4-11, mean±SD from two independent experiments. How it is done:
Cell lines. MV4‐11 (ACC 102), Jurkat (ACC 282) and THP‐1 (ACC 16) cells were obtained from DSMZ and maintained at 37 °C and 5 % CO2 at densities between 0.2–1×10^6 cells per mL in RMPI‐1640 medium supplemented with 10 % FBS, L‐glutamine (2 mM) and penicillin/streptomycin.
Cell viability endpoint assay. For the determination of cytotoxicity of proteasome inhibitors 50.000 cells per well were plated in 90 μl RPMI‐1640 medium supplemented with 0.1 % FBS and incubated overnight at 37 °C and 5 % CO2. Inhibitors were serially diluted in RPMI‐1640 medium as 10‐fold stocks and added to cells giving the final concentration (1 nM to 10 μM, Figure S2–S4) and incubated for 72 h at 37 °C and 5 % CO2. Cell viability was determined using the Celltiter Blue assay (Promega) by adding 20 μl of reagent, incubation for 120 minutes at 37 °C and 5 % CO2 and fluorescent read‐out using a Tecan M1000 microplate reader. Dose‐response curves were fitted to the equation “Y=Bottom+(Top‐Bottom)/(1+10^(X−L°^gIC50))” using GraphPad Prism 7.02. IC50 values are determined from technical triplicates as mean value of two independent experiments. Standard deviations (Table S1) as well as dose response curves (SI chapter 2b) are given in the supplementary information.

Assay [2] concerns the target T1, β1c subunit of isolated human 20S proteasome (Homo sapiens, UniProt P28072).
T1 construct: purchased Enzo Life Sciences
Nature of the assay: Proteasome inhibition assay (20 S Proteasome Assay Kit, Z‐LLE‐AMC). It is filed as biochemical. Particulars: c = 1 µM, n=1; read-out: Inhibition cCP β1. On the procedure:
(§1) Proteasome inhibition assay. […] The 20 S Proteasome Assay Kit for Drug Discovery was used according to the supplier's protocol using Suc‐LLVY‐AMC (β5), Bz‐VGR‐AMC (β2) or Z‐LLE‐AMC (β1) as substrates (Enzo Life Sciences). Single point measurements of residual activity of proteasome activity were performed at a final concentration of 100 nM (n=3, β5c, β5i) or 1 μM (n=1, β1c, β2c, β5c, β5i, SI chapter 2a, Table S1). […] Inhibitors were prepared in 2‐fold concentration (cfinal=100 nM) and added to proteasomes (mfinal=200 ng/well). After 30 min incubation, substrate was added (cfinal=100 μM), incubated for 60 minutes and fluorescence was read using a Tecan M1000 microplate reader. […] IC50 values were determined from technical duplicates as mean value of three independent experiments.

Assay [3] deals with T2, β2c subunit of isolated human 20S proteasome (Homo sapiens, UniProt Q99436).
T2 construct: purchased Enzo Life Sciences
In words: Proteasome inhibition assay (20 S Proteasome Assay Kit, Bz‐VGR‐AMC). The format is biochemical. The settings on record: c = 1 µM, n=1; read-out: Inhibition cCP β2. How it is done:
Proteasome inhibition assay. Bortezomib (Selleckchem) and carfilzomib (MedChemExpress) were purchased and used without further purification. The 20 S Proteasome Assay Kit for Drug Discovery was used according to the supplier's protocol using Suc‐LLVY‐AMC (β5), Bz‐VGR‐AMC (β2) or Z‐LLE‐AMC (β1) as substrates (Enzo Life Sciences). Single point measurements of residual activity of proteasome activity were performed at a final concentration of 100 nM (n=3, β5c, β5i) or 1 μM (n=1, β1c, β2c, β5c, β5i, SI chapter 2a, Table S1). […] Inhibitors were prepared in 2‐fold concentration (cfinal=100 nM) and added to proteasomes (mfinal=200 ng/well). After 30 min incubation, substrate was added (cfinal=100 μM), incubated for 60 minutes and fluorescence was read using a Tecan M1000 microplate reader. Dose‐response curves were fitted to the equation Y=100/(1+10^((L°^gIC50−X)*HillSl°^pe)) using GraphPad Prism 7.02. IC50 values were determined from technical duplicates as mean value of three independent experiments.

Assay [4] deals with T3, β5i subunit of isolated human 20S proteasome (Homo sapiens, UniProt P28062).
T3 construct: purchased Enzo Life Sciences
Nature of the assay: Proteasome inhibition assay (20 S Proteasome Assay Kit, Suc‐LLVY‐AMC). The format is biochemical. The settings on record: for inhibition at 1 µM: c = 1 µM, n=1, read-out: Inhibition iCP β5; for inhibition at 0.1 µM: c=100 nM, read-out: Rel. Inhibition β5i. How it is done: as §1

Assay [5] has as its target T4, β5c subunit of isolated human 20S proteasome (Homo sapiens, UniProt P28074).
T4 construct: purchased Enzo Life Sciences
Described as above. The format is biochemical. Particulars: for inhibition at 1 µM: c = 1 µM, n=1, read-out: Inhibition cCP β5; for inhibition at 0.1 µM: c=100 nM, read-out: Rel. Inhibition β5c. On the procedure: as §1

Some results are limits rather than exact numbers.

Molecule `Cc1ccc(NC(=O)C(=O)[C@H](CC(C)C)NC(=O)[C@H](CC(C)C)NC(=O)[C@H](CC(C)C)NC(=O)OCc2ccccc2)cc1Oc1ccccc1` [Compound 13, Benzyl((S)‐4‐methyl‐1‐(((S)‐4‐methyl‐1‐(((S)‐5‐methyl‐1‐((4‐methyl‐3‐phenoxyphenyl)‐amino)‐1,2‐dioxohexan‐3‐yl)amino)‐1‐oxopentan‐2‐yl)amino)‐1‐oxopentan‐2‐yl)carbamate] registered an IC50 in assay [1] of 23 ± 2 nM. The inhibition at 1 µM in assay [2] is -4%; in assay [3] it was 4%; in assay [4], 15%; in assay [5], 69%. Further, the results for the inhibition at 0.1 µM in assay [4] and in assay [5] were 28% and 49%, respectively.

In the case of `Cc1c(NC(=O)C(=O)[C@H](CC(C)C)NC(=O)[C@H](CC(C)C)NC(=O)[C@H](CC(C)C)NC(=O)OCc2ccccc2)cccc1Oc1ccccc1` [Compound 14, Benzyl((S)‐4‐methyl‐1‐(((S)‐4‐methyl‐1‐(((S)‐5‐methyl‐1‐((2‐methyl‐3‐phenoxyphenyl)‐amino)‐1,2‐dioxohexan‐3‐yl)amino)‐1‐oxopentan‐2‐yl)amino)‐1‐oxopentan‐2‐yl)carbamate], the IC50 in assay [1] turned out to be 27 ± 8 nM. Besides, the inhibition at 1 µM is -10% in assay [2], 5% in assay [3], 30% in assay [4] and 78% in assay [5]. For the same molecule, the inhibition at 0.1 µM in assay [4] came to 29%; in assay [5], 41%.

For `Cc1ccc(Oc2ccccc2)cc1NC(=O)C(=O)[C@H](CC(C)C)NC(=O)[C@H](CC(C)C)NC(=O)[C@H](CC(C)C)NC(=O)OCc1ccccc1` [Compound 15, Benzyl((S)‐4‐methyl‐1‐(((S)‐4‐methyl‐1‐(((S)‐5‐methyl‐1‐((2‐methyl‐5‐phenoxyphenyl)‐amino)‐1,2‐dioxohexan‐3‐yl)amino)‐1‐oxopentan‐2‐yl)amino)‐1‐oxopentan‐2‐yl)carbamate], half-maximal inhibition in assay [1] (IC50) required 16 ± 1 nM. Moreover, the inhibition at 1 µM is -2% in assay [2], 9% in assay [3], 48% in assay [4] and 75% in assay [5]. The inhibition at 0.1 µM in assay [4] came out at 19%; in assay [5], 26%.

As to `CC(C)C[C@H](NC(=O)OCc1ccccc1)C(=O)N[C@@H](CC(=O)OC(C)(C)C)C(=O)N[C@@H](CC(C)C)C(=O)C(=O)Nc1ccccc1` [Compound 16, tert ‐Butyl‐(S)‐3‐((S)‐2‐(((benzyloxy)carbonyl)amino)‐4‐methylpentanamido)‐4‐(((S)‐5‐methyl‐1,2‐dioxo‐1‐(phenylamino)hexan‐3‐yl)amino)‐4‐oxobutanoate], the IC50 in assay [1] stood at 46 ± 6 nM. Besides, the inhibition at 1 µM is 12% in assay [2], -8% in assay [3], 76% in assay [4] and 91% in assay [5]. The inhibition at 0.1 µM turned out to be 48% in assay [4] and 57% in assay [5].

Turning to `Cc1ccc(NC(=O)C(=O)[C@H](CC(C)C)NC(=O)[C@H](CC(=O)OC(C)(C)C)NC(=O)[C@H](CC(C)C)NC(=O)OCc2ccccc2)c(C)c1` [Compound 17, tert ‐Butyl‐(S)‐3‐((S)‐2‐(((benzyloxy)carbonyl)amino)‐4‐methylpentanamido)‐4‐(((S)‐1‐((2,4‐dime‐thylphenyl)amino)‐5‐methyl‐1,2‐dioxohexan‐3‐yl)amino)‐4‐oxobutanoate], 46 ± 1 nM corresponded to half-maximal inhibition in assay [1] (IC50). Also, the inhibition at 1 µM in assay [2] was 11%; in assay [3], -10%; in assay [4], 69%; in assay [5], 88%. Besides, the inhibition at 0.1 µM in assay [4] stood at 36%; in assay [5], 43%.

In the case of `CC(C)C[C@H](NC(=O)OCc1ccccc1)C(=O)N[C@@H](CC(=O)OC(C)(C)C)C(=O)N[C@@H](CC(C)C)C(=O)C(=O)Nc1ccccc1Oc1ccccc1` [Compound 18, tert ‐Butyl‐(S)‐3‐((S)‐2‐(((benzyloxy)carbonyl)amino)‐4‐methylpentanamido)‐4‐(((S)‐5‐methyl‐1,2‐dioxo‐1‐((2‐phenoxyphenyl)amino)hexan‐3‐yl)amino)‐4‐oxobutanoate], the midpoint of inhibition in assay [1], the IC50, lay at 76 ± 14 nM. The inhibition at 1 µM in assay [2] is -12%; in assay [3], 2%; in assay [4], 7%; in assay [5] it was 59%. The inhibition at 0.1 µM in assay [4] worked out at 18%; in assay [5], 28%.

In assay [1], `CC(C)C[C@H](NC(=O)OCc1ccccc1)C(=O)N[C@@H](CC(=O)OC(C)(C)C)C(=O)N[C@@H](CC(C)C)C(=O)C(=O)Nc1cccc(Oc2ccccc2)c1` [Compound 19, tert ‐Butyl‐(S)‐3‐((S)‐2‐(((benzyloxy)carbonyl)amino)‐4‐methylpentanamido)‐4‐(((S)‐5‐methyl‐1,2‐dioxo‐1‐((3‐phenoxyphenyl)amino)hexan‐3‐yl)amino)‐4‐oxobutanoate] returned an IC50 of 36 ± 5 nM. Further, the inhibition at 1 µM was -15% in assay [2], 9% in assay [3], 31% in assay [4] and 84% in assay [5]. Moreover, the inhibition at 0.1 µM in assay [4] is 43%; in assay [5] it was 53%.

In the case of `CC(C)C[C@H](NC(=O)OCc1ccccc1)C(=O)N[C@@H](CC(=O)OC(C)(C)C)C(=O)N[C@@H](CC(C)C)C(=O)C(=O)Nc1ccc(Oc2ccccc2)cc1` [Compound 20, tert ‐Butyl‐(S)‐3‐((S)‐2‐(((benzyloxy)carbonyl)amino)‐4‐methylpentanamido)‐4‐(((S)‐5‐methyl‐1,2‐dioxo‐1‐((4‐phenoxyphenyl)amino)hexan‐3‐yl)amino)‐4‐oxobutanoate], it took 68 ± 9 nM to reach half-maximal inhibition in assay [1] (IC50). For the same molecule, the inhibition at 1 µM in assay [2] was -24%; in assay [3] it was -7%; in assay [4] it was 22%; in assay [5], 38%. In addition, the inhibition at 0.1 µM is 40% in assay [4] and 41% in assay [5].

In assay [1], `Cc1cc(C)c(Oc2ccccc2)cc1NC(=O)C(=O)[C@H](CC(C)C)NC(=O)[C@H](CC(=O)OC(C)(C)C)NC(=O)[C@H](CC(C)C)NC(=O)OCc1ccccc1` [Compound 21, tert ‐Butyl(S)‐3‐((S)‐2‐(((benzyloxy)carbonyl)amino)‐4‐methylpentanamido)‐4‐(((S)‐1‐((2,4‐dime‐thyl‐5‐phenoxyphenyl)amino)‐5‐methyl‐1,2‐dioxohexan‐3‐yl)amino)‐4‐oxobutanoate] had an IC50 of 297 ± 27 nM. The inhibition at 1 µM in assay [2] was -4%; in assay [3], 11%; in assay [4], 17%; in assay [5] it was 52%. Also, in assay [5], the inhibition at 0.1 µM turned out to be 33%.

Regarding `CC(C)C[C@@H](C=O)NC(=O)[C@H](CC(C)C)NC(=O)[C@H](CC(C)C)NC(=O)Cn1cnc2ccccc2c1=O` [Compound 22, (S)‐4‐Methyl‐N‐((S)‐4‐methyl‐1‐(((S)‐4‐methyl‐1‐oxopentan‐2‐yl)amino)‐1‐oxopentan‐2‐yl)‐2‐(2‐(4‐oxoquinazolin‐3(4H)‐yl)acetamido)pentanamide], in assay [1], the IC50 is greater than 1000 nM. Moreover, the “IC50 MV4‐11” value in assay [1] (mean±SD from two independent experiments) is “inactive”. In addition, the inhibition at 1 µM in assay [2] was 28%; in assay [3] it was -10%; in assay [4], 28%; in assay [5] it was 43%. Moreover, the values for the inhibition at 0.1 µM in assay [4] and in assay [5] were 11% and 6%, respectively.

Source of the values: paper PMC6916368, “Cell‐Based Optimization of Covalent Reversible Ketoamide Inhibitors Bridging the Unprimed to the Primed Site of the Proteasome β5 Subunit” (Chemmedchem, 2019).
